Data set [1] is described as follows: Solubility in water. The class given is physicochemical.
Data set [2] can be described thus: Osmolality of the solution. The format is physicochemical. Particulars: 37°C, 300 mgI/ml.
Data set [3] can be described thus: Viscosity of the solution. The class given is physicochemical. The settings on record: 37°C, 300 mgI/ml.
The nature of data set [4]: Plasma kinetics after intravenous administration in rats. The class given is in vivo. Particulars: rat, 200 mgI/kg; for half-life: iv. The procedure:
The apparent volume of distribution is 123.5 ml/kg showing that the product is distributed in plasma and the extracellular spaces.

Data set [5] in a line: Elimination through urine and bile after administration. The class given is in vivo, rats. The settings on record: after 7 hours from the administration. How it is done:
Elimination occurs mainly through urinary pathway and in less extent through the bile. After 7 hours from the administration, 76.7% of the administered dose was found in the urine and 3.5% in the bile.

Data set [6] deals with mice. Description: Acute toxicity, intravenous administration in mice. Particulars: 14 days of observation. The format is in vivo.
Data set [7] relates to rats. Description: Acute toxicity, intracisternal administration in rats. Particulars: 7 days of observation. The class given is in vivo.

Read-outs that look alike come from different tables or passages of the source. A value given as a limit tells only on which side of the number the result lay.

Consider `C[C@H](O)C(=O)Nc1c(I)c(C(=O)NCC(O)CNC(=O)c2c(I)c(NC(=O)CO)c(I)c(C(=O)NC(CO)C(O)CO)c2I)c(I)c(C(=O)NC(CO)CO)c1I` (stereo partly drawn) [Example 11, 1-[3-hydroxyacetylamino-5-(1,3,4-trihydroxy-2-butyl)aminocarbonyl-2,4,6-triiodo-benzoyl-amino]-3-[3-(L-2-hydroxy-propionyl)amino-5-(1,3-dihydroxy-isopropyl)aminocarbonyl-2,4,6-triiodo-benzoyl-amino]-2-hydroxypropane], for which the “Solubility in H₂O” value in data set [1] (at 25°C) was over 100 % w/v.

Compound `CC(=O)N(CC(O)CN(C(C)=O)c1c(I)c(C(=O)NCC(O)CO)c(I)c(C(=O)NCC(O)CO)c1I)c1c(I)c(C(=O)NCC(O)CO)c(I)c(C(=O)NCC(O)CO)c1I` (stereo not shown) [C, 1,3-bis-[N-[3,5-bis-(2,3-dihydroxy-propyl)aminocarbonyl-2,4,6-triiodo-phenyl]-acetylamino]-2-hydroxy-propane, reference compound] had an Osmolality in data set [2] of 196 mosm/kg H₂O. For the same compound, the Viscosity in data set [3] stood at 8.7 mPa·s.

Turning to `O=C(CO)Nc1c(I)c(C(=O)NCC(O)CNC(=O)c2c(I)c(NC(=O)CO)c(I)c(C(=O)NC(CO)C(O)CO)c2I)c(I)c(C(=O)NC(CO)C(O)CO)c1I` (stereo not shown) [Example 15, 1,3-bis-[3-hydroxyacetylamino-5-(1,3,4-trihydroxy-2-butyl)aminocarbonyl-2,4,6-triiodo-benzoyl-amino]-2-hydroxy-propane], the “Solubility in H₂O” value in data set [1] (at 20°C) worked out at 100 % w/v.

In the case of `C[C@H](O)C(=O)Nc1c(I)c(C(=O)NCC(O)CNC(=O)c2c(I)c(NC(=O)CO)c(I)c(C(=O)NCC(O)CO)c2I)c(I)c(C(=O)NC(CO)CO)c1I` (stereo partly drawn) [Example 10, 1-[3-(L-2-hydroxy-propionyl)amino-5-(1,3-dihydroxyisopropyl)aminocarbonyl-2,4,6-triiodo-benzoyl-amino]-3-[3-hydroxyacetylamino-5-(2,3-dihydroxy-propyl)aminocarbonyl-2,4,6-triiodo-benzoyl-amino]-2-hydroxy-propane], in data set [2], the Osmolality turned out to be 131 mosm/kg H₂O. This compound came in with a Viscosity in data set [3] of 8.6 mPa·s.

For the compound `C[C@H](O)C(=O)Nc1c(I)c(C(=O)NCC(O)CNC(=O)c2c(I)c(NC(=O)[C@H](C)O)c(I)c(C(=O)NC(CO)C(O)CO)c2I)c(I)c(C(=O)NC(CO)C(O)CO)c1I` (stereo partly drawn) [Example 4, 1,3-bis-[3-(L-2-hydroxy-propionyl)amino-5-(1,3,4-tri-hydroxy-2-butyl)aminocarbonyl-2,4,6-triiodo-benzoyl-amino]-2-hydroxy-propane], the “Solubility in H₂O” value in data set [1] (at 20°C) worked out at 100 % w/v.

On to `CN(CC(O)CN(C)C(=O)c1c(I)c(NC(=O)CO)c(I)c(C(=O)NC(CO)C(O)CO)c1I)C(=O)c1c(I)c(NC(=O)CO)c(I)c(C(=O)NC(CO)C(O)CO)c1I` (stereo not shown) [Example 16, 1,3-bis-[N-methyl-N-[3-hydroxyacetylamino-5-(1,3,4-trihydroxy-2-butyl)aminocarbonyl-2,4,6-triiodo-benzoyl]-amino]-2-hydroxy-propane], for which, in data set [1] (at 20°C), the “Solubility in H₂O” value stood at 100 % w/v.

A word on the clearance: it is the volume of plasma or blood freed of the substance per unit of time. One may read the half-life as the time needed for the level to fall by half in the phase considered. Take `C[C@H](O)C(=O)Nc1c(I)c(C(=O)NCC(O)CNC(=O)c2c(I)c(NC(=O)[C@H](C)O)c(I)c(C(=O)NC(CO)CO)c2I)c(I)c(C(=O)NC(CO)CO)c1I` [Example 1, 1,3-bis-[3-(L-2-hydroxy-propionyl)amino-5-(1,3-dihydroxy-isopropyl)-aminocarbonyl-2,4,6-triiodo-benzoyl-amino]-2-hydroxy-propane]: the Vd in data set [4] (read-out: apparent volume of distribution) turned out to be 0.123 L/kg. The clearance in data set [4] (read-out: total clearance) stood at 7.9 mL/min/kg. Moreover, the half-life turned out to be 2.9 min in data set [4] (read-out: half life for the distribution phase) and 22.9 min in data set [4] (read-out: half life for the elimination phase). Further, in data set [5], the “administered dose found in the bile” value is given as 3.5%. The “administered dose found in the urine” value in data set [5] was 76.7%. For the same compound, the “LD₅₀ C.L. 95%” value is over 15000 mgI/kg in data set [6] and over 900 mgI/kg in data set [7]. The compound also came in with an Osmolality in data set [2] of 141 mosm/kg H₂O. The Viscosity in data set [3] is 8.5 mPa·s.

Take `C[C@H](O)C(=O)Nc1c(I)c(C(=O)NCC(O)CO)c(I)c(C(=O)N(C)CC(O)CN(C)C(=O)c2c(I)c(NC(=O)[C@H](C)O)c(I)c(C(=O)NCC(O)CO)c2I)c1I` (stereo partly drawn) [Example 8, 1,3-bis-[N-methyl-N-[3-(L-2-hydroxy-propionyl)amino-5-(2,3-dihydroxy-propyl)aminocarbonyl-2,4,6-triiodobenzoyl]amino]-2-hydroxy-propane]: in data set [1] (at 20°C), the “Solubility in H₂O” value was over 100 % w/v.

(Values after patent EP0557345B1, “1,3-BIS- 3-(MONO- OR POLY-HYDROXY)ACYLAMINO-5-(MONO- OR POLY-HYDROXYALKYL)AMINOCARBONYL-2,4,6-TRIIODO-BENZOYL-AMINO]-HYDROXY- OR HYDROXYALKYL-PROPANES, THEIR METHODS OF PREPARATION AND X-RAY CONTRAST MEDIA CONTAINING THEM” (DIBRA S.p.A., priority 1990, dated 1992).)
